Here are results for 62 compounds from a melting point compilation (Tetko et al.; mined from patent text by program, amines drawn as free bases though some values may be those of a salt).

The structures appear in SMILES notation.

The melting point is the temperature of the solid-liquid transition.

Compound `CCN(CCCc1c[nH]c2ccc(F)cc12)C1COc2c(F)ccc(C(=O)NC)c2C1` (configuration not stated) had a melting point of 118 °C.
For `CCCCCCCCCCCCCCCCSC(=O)Nc1ccc(NC(=O)NS(=O)(=O)c2ccc(OC)cc2)cc1`, the melting point was found to be 197 °C.
Regarding `Cc1cc(C)nc(NC(N)=S)n1`, the melting point was over 260 °C.
Then `CCCCCCOc1ccc(NC(=O)c2cnn(C)c2C)cc1C#N`, with 150 to 151 °C.
With `CC12CCCC1C1CCc3cc(F)ccc3C1CC2` (configuration not stated) the figure was 178 °C; with `CC(=NOCCOc1ccc(C(=O)O)c(OC(=O)c2ccc(-c3ccccc3)cc2)c1)c1ccccc1`, 158 to 159 °C.
In the case of `CCC(=O)c1ccc(C(CC(=O)Nc2cc(C(N)=O)ccc2C(C)(C)C)CC(C)C)c(OC)c1` (configuration not stated), the melting point lay within 186 to 187 °C.
Regarding `CC(C)(C)C(=O)Nc1ncccc1CNC1CCN(Cc2ccccc2)CC1`, the melting point amounted to 138 °C.
As to `CN(C)Cc1cnn(C)c1-c1ccc(Cl)cc1C(O)c1ccccc1F` (configuration not stated), the melting point fell in the range of 125 to 127 °C.
With `CCCCCCCCCCOc1ccc(C(=O)c2ccc(OC(=O)[C@H]3CCCO3)cc2)cc1` the figure was 80 °C; with `O=C(O)CCCOc1ccc(C23CC4CC(CC(C4)C2)C3)cc1Cl`, 164 to 166 °C; with `O=C(O)C(=O)c1ccc(S(=O)CCOc2ccc3ccccc3c2)cc1` (configuration not stated), 157 to 158 °C.
Then `Cc1ccc(-c2cc(-c3ccc(O)c(F)c3)nc3ccc(O)cc23)cc1`, with 184 to 188 °C; and `N#CCCN1C(=O)C(O)(c2cccc(Cl)c2)c2ccccc21` (configuration not stated), with 149 to 150 °C; and `CNC(=O)C(Cc1ccc(OC)cc1)NC(=O)C(CC(C)C)C(CC(=O)NCC(=O)O)SC(C)=O` (configuration not stated), with 188 to 192 °C.
Then `O=c1[nH]c(=O)n(C2CC(OCc3ccccc3)C(CO)O2)cc1F` (configuration not stated), with 138 to 139 °C.
For the compound `CC(C)(C)OC(=O)COc1cc(NC(=O)OC(C)(C)C)c([N+](=O)[O-])cc1C#Cc1ccccc1`, the melting point was 130 °C.
With `Nc1nc2cccnc2c2c1nc(CO)n2Cc1cc(-c2ccc(F)cc2)no1` the figure was 247 to 248 °C; with `O=C(Nc1ccc(Br)cc1)Oc1ccc2c(c1)CCCN2`, 198 °C; with `COc1ccc2c(c1C)CCc1ccc(-c3cccnc3)cc1C21N=C(N)N(C)C1=O` (configuration not stated), 235 to 239 °C.
Then `O=C(Nc1cccc(C(F)(F)F)c1)c1ccccc1NCc1ccc(=O)[nH]c1`, with 171 to 172 °C; and `CCOC(=O)[C@H](Cc1ccc([N+](=O)[O-])cc1)NC(=O)c1ccccc1`, with 99 to 101 °C.
Then `CCCCCCNC(=O)OCCCNC(=O)OC1CCN(C(=O)Oc2ccc(Oc3ccccc3)cc2)CC1`, with 90 to 92 °C.
As for `Cc1cc(Cc2cc(C)c(N=C=O)c(C)c2)cc(C)c1N=C=O`, the melting point was 130 to 131 °C.
With `NC(=O)c1ccc(-c2ccc(Oc3ccc(F)cc3)cc2)[nH]1` the figure was 218 to 220 °C; with `CCCCOc1ccc(C(=O)N(C)Cc2cccc(-c3ccc(CC4SC(=O)NC4=O)cc3)c2)cc1` (configuration not stated), 116 °C; with `CN(c1ccc(F)cc1)c1nc(=O)c2cccnc2s1`, 184 to 185 °C.
Then `CC(C)OC(=O)c1cc(-c2ccccc2)c(=O)n2c1-c1sccc1CC2`, with 166 °C; and `COc1ccccc1N1CCN(CC2(C)N=C(c3ccccc3)NC2=O)CC1` (configuration not stated), with 86 to 89 °C; and `OC1CCOc2ccc(C=Cc3nc4cc(F)ccc4s3)cc21` (configuration not stated), with 184 to 186 °C.
With `Cc1cc(C)c2c(c1)c(-c1ccccc1Cl)c(NC(=O)Nc1c(C)cccc1C(C)C)c(=O)n2C` the figure was 203 to 204 °C.
Compound `CC=C(C)c1ccc(-c2ccccc2F)cc1` registered a melting point of 83 to 85 °C.
`O=C(O)C1c2ccccc2C=Cc2ccccc21`: the melting point fell in the range of 244 to 245 °C.
Then `Cc1cccc(Nc2cc(Nc3cccc(OCCCN(C)C)c3)ncn2)c1`, with 142 to 144 °C; and `N#CCCNC(=O)c1nn(C2CCCCO2)cc1NC(=O)c1cc(Cl)ccn1` (configuration not stated), with 218 to 219 °C.
Regarding `COC(=O)CCc1cc2cc(F)ccc2n1S(=O)(=O)c1ccccc1`, the melting point was 79 to 80 °C.
Then `O=C(Nc1cccc2ccccc12)N(CCCN1CCC(Cc2ccccc2)CC1)c1ccccc1`, with 124 to 127 °C.
`O=P(O)(O)COc1c(Br)cc(-c2c3ccccc3c(Br)c3sc4ccccc4c23)cc1Br` had a melting point of 334 to 335 °C.
With `O=C(O)C1c2ccccc2COc2ccc(F)cc21` (configuration not stated), the melting point was 176 °C.
With `CC1CCN(c2nn3ccnc3c3c2CCCC3)CC1` the figure was 95 to 95.5 °C; with `O=CC1CC(n2ccc(=O)[nH]c2=O)OC1COC(c1ccccc1)(c1ccccc1)c1ccccc1` (configuration not stated), 100 °C; with `COc1ccc(CC(=O)Nc2c(C)c(C)c3oc(C)c(-c4ccc(C(C)C)cc4)c3c2C)cc1`, 202 to 204 °C.
Then `CC(C)(C)OC(=O)Nc1ccncc1N`, with 124 to 126 °C; and `Cc1ccc(C(O)C(=O)c2ccc(Br)cc2)cc1` (configuration not stated), with 80 to 82 °C.
`COc1cc(OC)cc(N2CCN(C(=O)N(C)c3cc(C(C)OC)c(C)nc3OC)CC2)c1` (configuration not stated) returned a melting point of 117 to 119 °C.
As for `CCOC(=O)CC(=O)Nc1ccc([N+](=O)[O-])cc1`, the melting point lay in the range of 102 to 103 °C.
Then `CCC(c1oc2ccc(F)cc2c(=O)c1-c1ccccc1)n1cnc2c(N)ncnc21` (configuration not stated), with 266 to 272 °C; and `CC(=NNC(=S)NCCN1CCOCC1)c1ccccn1`, with 168 to 169 °C.
With `C[Si](C)(C)c1cc(Cl)sc1C(=O)NCCO` the figure was 110 to 114 °C; with `O=CC(=Cc1ccccc1Cl)C(C=O)=Cc1ccccc1Cl`, 177 to 178 °C; with `Clc1ccc(-n2nc3c(c2Br)CCC3)cc1`, 109 to 112 °C.
As to `C(#Cc1cc2ccccc2s1)c1ccc(-c2ccccc2)s1`, the melting point lay within 185 to 186 °C.
Then `Cc1cc2cn[nH]c2c(C(=O)NC2(C3CC3)CC2)c1NC(=O)c1cc(Br)nn1-c1ncccc1Cl`, with 170 to 173 °C; and `CCOCc1nc2c(N)nc3cc(OCc4nccn4C)ccc3c2n1CC(C)(C)O`, with 200 to 202 °C; and `O=C1Nc2ccccc2N2CCCC12` (configuration not stated), with 169 to 172 °C.
With `Cc1nc2cc(NS(=O)(=O)c3cc(Cl)ccc3Cl)ccc2o1` the figure was 194 °C; with `Cc1nc(C=CNC(=O)c2ccccc2)n[nH]1`, 140 to 145 °C.
Then `CC(C)(C)c1c(=O)o[n-][n+]1CCSC12CC3CC(CC(C3)C1)C2`, with 55 to 56 °C; and `NS(=O)(=O)c1cc2c(cc1Cl)C(=O)N(Cc1ccccn1)C2=O`, with 240 to 242 °C; and `O=C(O)CCc1cc2cc(Cl)ccc2n1S(=O)(=O)c1ccc2[nH]ccc2c1`, with 79 °C.
`CCOC(=S)c1sc(Cl)nc1C(F)(F)F` registered a melting point of 28 to 32 °C.
Then `Cc1nc2c(OCc3c(Cl)ccc(N(C)C(=O)CO)c3Cl)cccn2c1Br`, with 217 to 218 °C.
